Laboratory results reported in patent US12502369B2, “Methods of cancer treatment” (K-GEN, INC., priority 2015, dated 2025).
Entries after “also recorded” stand apart in the source; their conditions may differ.

Key:
[1] = test system: A549 cells; assay: Soft agar colony formation assay; format: cell-based
Protocol: To prepare the base agar layer (0.6%), melted 1.2% agar solution was mixed 1:1 (v/v) with 2×DMEM/20% FBS medium in a tube by inverting several times and 50 μL of the mixture was immediately transferred to a well in a 96-well flat-bottom microplate. The plate was placed at 4° C. for 30 minutes to allow the base agar layer to solidify. Then, the cell agar layer (agar 0.4%) was prepared by transferring 75 μL of the cell and agar mixture containing 1:1:1 (v/v/v) of 1.2% agar solution, 2×DMEM/20% FBS and cell suspension (0.4-4×10^5/mL) to each well of the plates so that each well contained 1000-10000 cells per well. The plates were placed at 4° C. for 15 minutes and then 75 μL of media were added to each well. After incubating the plates overnight in a CO2 incubator, 50 μL of media with or without 5× final concentrations of compounds were added to each well. Each compound was tested in 9-point 3-fold dilution series. The plates were incubated for 7-10 days at 37° C. At the end of incubation period, 28 μL of Calcein AM solution (5 μM) was added to the center of each well. The plates were incubated at 37° C. for 45 minutes before scanning on Acumen (TTP Labtech). Each compound was tested in triplicates. Data was analyzed and compound EC50s were calculated using GraphPad Prism 5.

[2] = test system: PKC substrates in A549 cells; assay: Global PKC activation (phosphorylated PKC substrates), Western blot, A549; format: cell-based; details: 30 minutes, Phospho-PKC substrate Motif MultiMab
Protocol: (§1) A549 lung cancer cells (˜3 million cells) were seeded in 10 cm tissue culture dishes and grown overnight. Cells were then treated with different drugs at indicated concentrations (see FIG. 9A for global activation of PKC and FIG. 10 for activation of PKC isoforms) for 30 minutes. Panc2.13 pancreatic cells (˜5 million) were seeded and treated as in FIG. 9B for global activation of PKC. Cell lysate preparation, protein quantitation, SDS-PAGE, and Western blotting procedures are described in Example 2. Primary antibodies used in this Example and later Examples of this application are shown in Table A. Western blot membranes were scanned using Odyssey® Imaging System (Licor Biosciences) if secondary antibodies Anti-mouse IgG Dylight 800 conjugate or Anti-rabbit IgG DyLight 680 conjugate (1:10000)(Cell signaling or similar IR 2nd antibodies from different vendors) were used. Alternatively, Imagequant LAS4000 (GE) was used to scan membranes if secondary antibodies Anti-mouse IgG HRP conjugate or Anti-rabbit IgG HRP conjugate (dilutions from 1:2000-1:10000) were used.

[3] = test system: PKC substrates in Panc2.13 cells; assay: Global PKC activation (phosphorylated PKC substrates), Western blot, Panc2.13; format: cell-based; details: Phospho-(Ser) PKC Substrate Antibody
Protocol: as §1

[4] = test system: PKC isoforms in A549 cells; assay: Activation of PKC isoforms, Western blot, A549; format: cell-based; details: 30 minutes
Protocol: as §1

[5] = test system: PKCμ; assay: PKCμ phosphorylation in A549, HCT116, SW620, Panc02.13 cells, Western blot; format: cell-based; details: 30 minutes
Protocol: (§2) Non-cancerous lung fibroblast cell line HFL-1 or cancer cells (2-8 million cells) were seeded in 10 cm dishes and grown overnight so that the cells were about 40-80% confluent before treatment with the compound. Cells were then treated with different drugs at indicated concentrations (see descriptions for FIG. 11 and FIG. 12) for 30 minutes. Cell lysate preparation, protein quantitation, SDS-PAGE, and Western blotting procedures are described in Example 2 and 4. Primary antibodies used in this Example and later Examples of this application are shown in Table A. Secondary antibodies Anti-mouse IgG HRP conjugate or Anti-rabbit IgG HRP conjugate (dilutions from 1:2000-1:10000) were used. Western blot membranes were scanned using Imagequant LAS4000 (GE).

[6] = test system: PKCδ; assay: PKCδ Tyr311 phosphorylation in A549, HCT116, SW620, Panc02.13 cells, Western blot; format: cell-based; details: 30 minutes
Protocol: as §2, with “(GE). The results are shown in FIG. 11A and FIG. 11B for HFL-1 cells and FIG. 11C and FIG. 12 for A549 cells.” for “(GE).”

[7] = test system: PKC isoforms in Panc2.13 cells; assay: Time course of activation of PKC isoforms in Panc2.13; format: cell-based; details: extended periods (16 h and 24 h), K102 0.1 μM, K103 0.01 μM versus K101A
Protocol: Cells of pancreatic cancer cell line Panc2.13 were seeded as described above, and the cell confluence was between 40-80% the next day. […] Phosphorylation at multiple PKC isoforms, such as Ser744/748 or Ser916 for PKCμ, phosphorylation at Thr638/641 for PKCα/β, phosphorylation at Ser660 for PKCβII (pan-PKC), phosphorylation at Ser643/676 for PKCδ/θ, and phosphorylation at Thr505 for PKCδ, were detected.

[8] = test system: K-Ras mutant pancreatic, lung, and colon cancer cell lines, leukemia cell lines; assay: Proliferation assays, panel of cancer cell lines (summary statements); format: cell-based
Protocol: Briefly, cells at a density of 1,000-10,000 cells/well were seeded in 96-well plates and incubated at 37′C for 24 hours. A series of 9 different concentrations of compound stocks (500×) were created by 3-fold serial dilution in DMSO. These compounds were further diluted in culture media and then added to cells so that the final DMSO concentration was 0.2%. After 96 hours of incubation, 50 μL of CellTiter Glo reagent (Promega) was added to each well and luminescence was measured after 10 minutes using EnVision (PerkinElmer). […] The dose range for most compounds was 4.6 nM-30 μM. The dose ranges for some compounds were adjusted downward to 0.46 nM-3 μM or 0.08 nM-0.5 μM or 0.03 nM-0.2 μM. Luminescence from cells treated with […] alone was set as Max and % of inhibition was calculated as follows: Inhibition %=(Max-Sample value)/Max*100. Data was analyzed using XL-fit software (ID Business Solutions Ltd.) and EC50, relative EC50, and % of top inhibition were calculated. The results are shown in Tables 3-6 for pancreatic cancer, lung cancer, colon/gastric cancer, and leukemia cell lines.

[9] = literature reports; cited from earlier work
[10] = test system: A549; assay: Proliferation assay, PKC inhibitor in combination with PKC activators, A549; format: cell-based; details: Go6983 0.1 μM or 1 μM with K101A or K102
Protocol: To assess if activation of different classes of PKC is required for anti-proliferation effect of PKC activators, Sotrastaurin, a PKC inhibitor targeting both conventional and novel classes of PKC, was tested in combination with PKC activators in the proliferation assays. Proliferation assay in lung cancer cell line A549 (FIG. 15) and in pancreatic cell line MiaPaCa-2 (FIG. 16) was performed as described in Example 1. […] Then, K101A or K102 was tested in 8- or 9-point titrations in the presence of DMSO or Sotrastaurin (0.1 μM or 1 μM). […] Thus, PKC activator-mediated anti-proliferation effects are dependent on activation of PKC isoforms from conventional, or novel, or both classes of PKCs.
To assess if PKC activation is required for anti-proliferation effect of PKC activators in cancer cell lines that are sensitive to these activators, a pan-PKC inhibitor Go6983, targeting classes of PKCs (conventional, novel, atypical, and PKCμ), was tested in combination with PKC activators in the proliferation assays. Proliferation assay in lung cancer cell line A549 (FIG. 17) and in pancreatic cell line MiaPaCa-2 (FIG. 18) was performed as described in Example 1. […] Then, K101A or K102 was tested in 8- or 9-point titrations in the presence of DMSO or Go6983 (0.1 μM or 1 μM). […] Thus, PKC activation is required for anti-proliferation effect of PKC activators.
Proliferation assay was performed as described in Example 1. […] Thus, PKC activator-mediated anti-proliferation effects appear mainly dependent on activation of novel PKC isoforms.

[11] = test system: MiaPaCa-2; assay: Proliferation assay, PKC inhibitor in combination with PKC activators, MiaPaCa-2; format: cell-based; details: Go6983 0.1 μM or 1 μM with K101A or K102
[12] = test system: PKC isoforms and Erk1/2 in A549 cells; assay: PKC inhibitor effect on PKC activator-mediated phosphorylation of PKCs and Erk1/2, A549; format: cell-based; details: 30 minutes
Protocol: To assay if PKC inhibitors have any effects on the PKC activator-mediated phosphorylation of PKCs, A549 cells were pre-treated with DMSO, PKC inhibitors Go6983 (0.3 μM or 1 μM) or Sotrastaurin (0.3 μM or 1 μM) for 30 minutes before adding PKC activators K101A (1 μM) or K102 (0.1 μM) for another 30 minutes (FIG. 22). Cell lysis, protein quantitation, and Western blot analysis were performed as described above in Example 2 and 4. […] Phosphorylation of PKCα/β at Thr638/641 was not affected by the inhibitors (FIG. 22A). […] These PKC inhibitor studies indicate that blocking phosphorylation and activation of various isoforms of PKC is correlated with inhibition of the anti-proliferative effects of the PKC activators.
Cell lysis, protein quantitation, and Western blot analysis were performed as described above in Example 2 and 4. […] These PKC inhibitor studies also indicate that phosphorylation and activation of novel PKC isoforms and PKCμ is required for the anti-proliferative effects of the PKC activators whereas phosphorylation of PKCδ at Tyr311 is correlated with inhibition of the anti-proliferative effects of PKC activators.

[13] = test system: Mino cells; assay: Proliferation assay, PKC inhibitors in combination with PKC activators, Mino; format: cell-based; details: Sotrastaurin 0.3/1 μM, Go6983 0.1/1 μM, Go6976 0.3/1 μM, Enzastaurin 1/3 μM
Protocol: PKC inhibitor studies were performed as described in Example 8, 9, and 10. […] Thus, PKC activator-mediated anti-proliferation effects may be dependent on activation of PKC isoforms from the novel PKC class.

[14] = test system: Namalwa cells; assay: Proliferation assay, PKC inhibitors in combination with PKC activators, Namalwa; format: cell-based; details: Sotrastaurin 0.3/1 μM, Go6983 0.1/1 μM, Go6976 0.3/1 μM, Enzastaurin at very high concentration of 10 μM
Protocol: PKC inhibitor studies were performed as described in Example 15. […] Thus, PKC activator-mediated anti-proliferation effects may be dependent on activation of novel PKC isoforms.

[15] = test system: PKC isoforms and Erk1/2 in Mino and Namalwa cells; assay: PKC inhibitor effect on K101A-mediated phosphorylation of PKCs and Erk1/2 in Mino and Namalwa cells; format: cell-based
Protocol: Cell lysis, protein quantitation, and Western blot analysis were performed as described above in Example 2 and 4. […] Again, these PKC inhibitor studies indicate the anti-proliferative effects of the PKC activators appear to be positively associated with phosphorylation and activation of novel PKC isoforms and PKCγ, and negatively associated with the phosphorylation of PKCδ at Tyr311.

[16] = inhibitor pre-treatment 0.3 μM or 1 μM

## CCCCCCCCCCCCCC(=O)O[C@@H]1[C@@H](C)[C@@]2(O)[C@@H](C=C(CO)C[C@]3(O)C(=O)C(C)=C[C@@H]23)[C@@H]2C(C)(C)[C@]12OC(C)=O [Compound K-103, 12-O-Tetradecanoylphorbol-13-acetate]
[1]; 7-10 days, 9-point dilution series
  number of colonies formed in soft agar: reduced the number of colonies
[1]; K103, followed by K102, K101A, and K101E
  potency rank in soft agar assay: Most potent compound
[2]
  phosphorylation of PKC substrates (global activation of PKC): potently elevated
[3]
  phosphorylation of PKC substrates (global activation of PKC): potently elevated
[4]
  P-PKCδ (Thr505) and P-PKCδ/θ (Ser643/676): potently increased
[4]; high levels already in DMSO treated cells
  P-PKC (pan)(βII Ser660) and P-PKCα/β (Thr638/641): no further increases
[5]
  PKCμ activation, phosphorylation at Ser744/748: observed for all four cancer cell lines
  PKCμ activation, phosphorylation at Ser916: observed primarily in cell lines A549 and Pan 02,13; also recorded: observed primarily in cell lines A549 and Panc02.13
[6]
  PKCδ activation, phosphorylation at Tyr311: observed for PKC activator insensitive cell lines HCT116 and SW620 but not as significantly for sensitive cell lines A549 and Pan 02,13; also recorded: observed for cell lines HCT116 and SW620 but not as significantly for cell lines A549 and Panc02.13
[7]
  reducing the phosphorylation at βII Ser660 of PKC (pan), to a lesser extent Thr638/641 of PKCα/β: more potent
[8]
  potency in proliferation inhibition relative to prostratin: more potent in proliferation inhibition
[9]
  tumor promotion: tumor-promoting

## COc1ccc2c(c1)c(C1=C(c3c[nH]c4ccccc34)C(=O)NC1=O)cn2CCCN(C)C [Go6983]
[10]
  effect on PKC activator-mediated anti-proliferation effects: inhibited the PKC activator-mediated anti-proliferation effects in a dose-dependent manner
[11]
  effect on PKC activator-mediated anti-proliferation effects: inhibited the PKC activator-mediated anti-proliferation effects in a dose-dependent manner
[12]; [16]
  K101A- and K102-induced phosphorylation of Erk1/2: blocked dose-dependently
  K101A- or K102-induced phosphorylation, P-PKCμ (Ser916), P-PKCμ (Ser744/748), P-PKCδ (Thr505): blocked in a dose-dependent manner
  Phosphorylation of PKCα/β at Thr638/641: not affected
[12]; inhibitor pre-treatment 1 μM
  K101A- or K102-induced phosphorylation of PKCμ at Ser916 or Ser744/748, PKCδ at Thr505, and Erk: completely abolished
  phosphorylation of PKCδ at Tyr311 induced by PKC inhibitor: induced phosphorylation of PKCδ at Tyr311
[13]
  effect on PKC activator-mediated anti-proliferation effects: dose-dependently blocked
[14]
  effect on PKC activator-mediated anti-proliferation effects: dose-dependently blocked
[15]; inhibitor pre-treatment 30 minutes
  phosphorylation of PKCδ at Tyr311 induced by PKC inhibitor: induced robust phosphorylation
[15]; inhibitor pre-treatment 30 minutes (Go6983, Sotrastaurin 1 μM)
  K101A-induced phosphorylation of PKCμ at Ser916 or Ser744/748, PKCδ at Thr505, and Erk: completely abolished
